Source: ChEMBL document CHEMBL3885861, “Open TG-GATES”

Species: Rattus norvegicus
Experiment: Open TG-GATES - Regimen: Daily Repeat
Assay type: toxicity, organism-based, Sprague-Dawley
Parameters: regimen Daily Repeat, gender Male, age 6 weeks
Details: in vivo, po, route gavage; for APTT / Bas / Eos / Fbg / Hb / Ht / Lym / MCH / MCHC / MCV / Mono / Neu / PT / Plat / RBC / Ret / WBC: tissue Blood; for KIDNEY_L / KIDNEY_R / KIDNEY_TOTAL: tissue Kidney; for LIVER: tissue Liver; for A/G / ALP / ALT / AST / BUN / CRE / Ca / Cl / DBIL / GLC / IP / K / LDH / Na / PL / RALB / TBIL / TC / TG / TP / gamma-GTP: tissue Plasma
[1] = 0 mg/kg, 72 h, dose level Control, time 3 day
[2] = 0 mg/kg, […], dose level Control, time 7 day
[3] = 0 mg/kg, […], dose level Control, time 14 day
[4] = 0 mg/kg, […], dose level Control, time 28 day
[5] = 3 mg/kg, 72 h, dose level Low, time 3 day
[6] = 3 mg/kg, […], dose level Low, time 7 day
[7] = 3 mg/kg, […], dose level Low, time 14 day
[8] = 3 mg/kg, […], dose level Low, time 28 day

## Cn1cnc([N+](=O)[O-])c1Sc1ncnc2nc[nH]c12 [AZATHIOPRINE]
[1]
  TERMINAL_BW: 200.7 g
  APTT: 21.5 s
  Bas: 0%
  Eos: 0.8%
  Fbg: 305.2 mg/dL
  Hb: 13.5 g/dL
  Ht: 39.8%
  Lym: 80.4%
  MCH: 21.4 pg
  MCHC: 33.8%
  MCV: 63.1 fL
  Mono: 2.2%
  Neu: 15.4%
  PT: 16.3 s
  Plat: 129.4 x10_4/uL
  RBC: 630.8 x10_4/ul
  Ret: 8%
  WBC: 91.1 x10_2/uL
  KIDNEY_L: 0.9 g
  KIDNEY_R: 0.9 g
  KIDNEY_TOTAL: 1.8 g
  LIVER: 9.6 g
  A/G: 1.2
  ALP: 1684.4 IU/L
  ALT: 44.2 IU/L
  AST: 69.2 IU/L
  BUN: 16.6 mg/dL
  CRE: 0.1 mg/dL
  Ca: 11.2 mg/dL
  Cl: 105.8 meq/L
  DBIL: 0 mg/dL
  GLC: 194.4 mg/dL
  IP: 7.2 mg/dL
  K: 3.9 meq/L
  LDH: 220.4 IU/L
  Na: 144 meq/L
  PL: 157.8 mg/dL
  RALB: 3 g/dL
  TBIL: 0.006 mg/dL
  TC: 79.8 mg/dL
  TG: 115.6 mg/dL
  TP: 5.5 g/dL
  gamma-GTP: 1 IU/L
[2]
  TERMINAL_BW: 246.2 g
  APTT: 21.9 s
  Bas: 0%
  Eos: 0.8%
  Fbg: 327.8 mg/dL
  Hb: 13.8 g/dL
  Ht: 39.8%
  Lym: 77.4%
  MCH: 21.9 pg
  MCHC: 34.7%
  MCV: 63 fL
  Mono: 2.4%
  Neu: 18.2%
  PT: 15.8 s
  Plat: 123.7 x10_4/uL
  RBC: 631.4 x10_4/ul
  Ret: 6.8%
  WBC: 129.6 x10_2/uL
  KIDNEY_L: 1 g
  KIDNEY_R: 1.1 g
  KIDNEY_TOTAL: 2.1 g
  LIVER: 11.4 g
  A/G: 1.2
  ALP: 1579.8 IU/L
  ALT: 42.4 IU/L
  AST: 72 IU/L
  BUN: 20.2 mg/dL
  CRE: 0.2 mg/dL
  Ca: 10.8 mg/dL
  Cl: 107.2 meq/L
  DBIL: 0 mg/dL
  GLC: 201.4 mg/dL
  IP: 6.6 mg/dL
  K: 4.3 meq/L
  LDH: 194.8 IU/L
  Na: 143.2 meq/L
  PL: 156.6 mg/dL
  RALB: 3 g/dL
  TBIL: 0.004 mg/dL
  TC: 80 mg/dL
  TG: 118.4 mg/dL
  TP: 5.5 g/dL
  gamma-GTP: 1.2 IU/L
[3]
  TERMINAL_BW: 269.5 g
  APTT: 22.4 s
  Bas: 0%
  Eos: 0.8%
  Fbg: 309 mg/dL
  Hb: 14.9 g/dL
  Ht: 41.2%
  Lym: 87%
  MCH: 21.4 pg
  MCHC: 36.1%
  MCV: 59.4 fL
  Mono: 1.4%
  Neu: 10%
  PT: 16.9 s
  Plat: 103.8 x10_4/uL
  RBC: 694.4 x10_4/ul
  Ret: 4%
  WBC: 113.3 x10_2/uL
  KIDNEY_L: 1.1 g
  KIDNEY_R: 1.1 g
  KIDNEY_TOTAL: 2.2 g
  LIVER: 11.7 g
  A/G: 1.1
  ALP: 1520.8 IU/L
  ALT: 35.6 IU/L
  AST: 66.8 IU/L
  BUN: 17.8 mg/dL
  CRE: 0.2 mg/dL
  Ca: 10.4 mg/dL
  Cl: 107 meq/L
  DBIL: 0 mg/dL
  GLC: 178.2 mg/dL
  IP: 6.5 mg/dL
  K: 4.3 meq/L
  LDH: 153.2 IU/L
  Na: 143.6 meq/L
  PL: 135.6 mg/dL
  RALB: 3 g/dL
  TBIL: 0.004 mg/dL
  TC: 63.4 mg/dL
  TG: 146.2 mg/dL
  TP: 5.8 g/dL
  gamma-GTP: 1.2 IU/L
[4]
  TERMINAL_BW: 356.1 g
  APTT: 23.7 s
  Bas: 0%
  Eos: 1%
  Fbg: 314.8 mg/dL
  Hb: 15.3 g/dL
  Ht: 44.8%
  Lym: 84.8%
  MCH: 19.6 pg
  MCHC: 34.3%
  MCV: 57.1 fL
  Mono: 1.4%
  Neu: 12%
  PT: 17.1 s
  Plat: 109.1 x10_4/uL
  RBC: 784 x10_4/ul
  Ret: 2.7%
  WBC: 122.9 x10_2/uL
  KIDNEY_L: 1.2 g
  KIDNEY_R: 1.2 g
  KIDNEY_TOTAL: 2.4 g
  LIVER: 14.3 g
  A/G: 1.1
  ALP: 1240.4 IU/L
  ALT: 44.8 IU/L
  AST: 71.6 IU/L
  BUN: 18.6 mg/dL
  CRE: 0.2 mg/dL
  Ca: 10.3 mg/dL
  Cl: 106.6 meq/L
  DBIL: 0 mg/dL
  GLC: 202.4 mg/dL
  IP: 5.5 mg/dL
  K: 3.7 meq/L
  LDH: 175.2 IU/L
  Na: 141.4 meq/L
  PL: 145.8 mg/dL
  RALB: 3.1 g/dL
  TBIL: 0.01 mg/dL
  TC: 66 mg/dL
  TG: 159.8 mg/dL
  TP: 6 g/dL
  gamma-GTP: 1 IU/L
[5]
  TERMINAL_BW: 215.2 g
  APTT: 20.9 s
  Bas: 0%
  Eos: 0.4%
  Fbg: 312.4 mg/dL
  Hb: 13 g/dL
  Ht: 38.6%
  Lym: 83.6%
  MCH: 22 pg
  MCHC: 33.6%
  MCV: 65.4 fL
  Mono: 1.8%
  Neu: 13%
  PT: 16.2 s
  Plat: 125.6 x10_4/uL
  RBC: 590 x10_4/ul
  Ret: 7.5%
  WBC: 81.3 x10_2/uL
  KIDNEY_L: 1 g
  KIDNEY_R: 1 g
  KIDNEY_TOTAL: 1.9 g
  LIVER: 10.5 g
  A/G: 1.3
  ALP: 1666 IU/L
  ALT: 45 IU/L
  AST: 73.2 IU/L
  BUN: 17.6 mg/dL
  CRE: 0.1 mg/dL
  Ca: 11.3 mg/dL
  Cl: 106.6 meq/L
  DBIL: 0 mg/dL
  GLC: 188.8 mg/dL
  IP: 6.7 mg/dL
  K: 4.4 meq/L
  LDH: 192.8 IU/L
  Na: 143.4 meq/L
  PL: 142.8 mg/dL
  RALB: 3.1 g/dL
  TBIL: 0.008 mg/dL
  TC: 73.8 mg/dL
  TG: 85 mg/dL
  TP: 5.6 g/dL
  gamma-GTP: 1 IU/L
[6]
  TERMINAL_BW: 233.9 g
  APTT: 21.4 s
  Bas: 0%
  Eos: 1%
  Fbg: 312.6 mg/dL
  Hb: 14 g/dL
  Ht: 40.2%
  Lym: 79%
  MCH: 21.4 pg
  MCHC: 34.9%
  MCV: 61.3 fL
  Mono: 2.2%
  Neu: 17%
  PT: 15.8 s
  Plat: 115.5 x10_4/uL
  RBC: 655.8 x10_4/ul
  Ret: 5.5%
  WBC: 121.2 x10_2/uL
  KIDNEY_L: 1 g
  KIDNEY_R: 1 g
  KIDNEY_TOTAL: 2 g
  LIVER: 10.6 g
  A/G: 1.2
  ALP: 1762.2 IU/L
  ALT: 44.2 IU/L
  AST: 71.2 IU/L
  BUN: 19.8 mg/dL
  CRE: 0.1 mg/dL
  Ca: 10.5 mg/dL
  Cl: 107.6 meq/L
  DBIL: 0 mg/dL
  GLC: 201 mg/dL
  IP: 7 mg/dL
  K: 4.1 meq/L
  LDH: 232 IU/L
  Na: 143.2 meq/L
  PL: 151.2 mg/dL
  RALB: 3.1 g/dL
  TBIL: 0.006 mg/dL
  TC: 74.8 mg/dL
  TG: 117.4 mg/dL
  TP: 5.7 g/dL
  gamma-GTP: 1.2 IU/L
[7]
  TERMINAL_BW: 269.8 g
  APTT: 22.5 s
  Bas: 0%
  Eos: 0.8%
  Fbg: 325.2 mg/dL
  Hb: 14.6 g/dL
  Ht: 41%
  Lym: 77.4%
  MCH: 21.4 pg
  MCHC: 35.7%
  MCV: 59.9 fL
  Mono: 1.8%
  Neu: 19%
  PT: 16.3 s
  Plat: 113.2 x10_4/uL
  RBC: 684.8 x10_4/ul
  Ret: 3.6%
  WBC: 82.1 x10_2/uL
  KIDNEY_L: 1.1 g
  KIDNEY_R: 1.1 g
  KIDNEY_TOTAL: 2.2 g
  LIVER: 11.4 g
  A/G: 1.1
  ALP: 1472 IU/L
  ALT: 34.6 IU/L
  AST: 61.4 IU/L
  BUN: 17.4 mg/dL
  CRE: 0.2 mg/dL
  Ca: 10.7 mg/dL
  Cl: 108 meq/L
  DBIL: 0 mg/dL
  GLC: 185.4 mg/dL
  IP: 6.1 mg/dL
  K: 4.2 meq/L
  LDH: 145 IU/L
  Na: 143.8 meq/L
  PL: 143.2 mg/dL
  RALB: 3.1 g/dL
  TBIL: 0.006 mg/dL
  TC: 74.2 mg/dL
  TG: 116.2 mg/dL
  TP: 5.9 g/dL
  gamma-GTP: 1 IU/L
[8]
  TERMINAL_BW: 343.6 g
  APTT: 24.6 s
  Bas: 0%
  Eos: 1%
  Fbg: 302.2 mg/dL
  Hb: 14.6 g/dL
  Ht: 42.3%
  Lym: 84.6%
  MCH: 19.4 pg
  MCHC: 34.4%
  MCV: 56.4 fL
  Mono: 1.6%
  Neu: 12%
  PT: 16.5 s
  Plat: 116.9 x10_4/uL
  RBC: 749.8 x10_4/ul
  Ret: 2.7%
  WBC: 116.8 x10_2/uL
  KIDNEY_L: 1.3 g
  KIDNEY_R: 1.3 g
  KIDNEY_TOTAL: 2.5 g
  LIVER: 14.1 g
  A/G: 1.1
  ALP: 1129.8 IU/L
  ALT: 46.2 IU/L
  AST: 71.2 IU/L
  BUN: 19.2 mg/dL
  CRE: 0.2 mg/dL
  Ca: 10.6 mg/dL
  Cl: 107.8 meq/L
  DBIL: 0.002 mg/dL
  GLC: 185 mg/dL
  IP: 5.6 mg/dL
  K: 3.9 meq/L
  LDH: 181 IU/L
  Na: 141.8 meq/L
  PL: 156.8 mg/dL
  RALB: 3.2 g/dL
  TBIL: 0.01 mg/dL
  TC: 79 mg/dL
  TG: 110.6 mg/dL
  TP: 6.1 g/dL
  gamma-GTP: 1.2 IU/L
